Data taken from ChEMBL document CHEMBL1201862, “PubChem BioAssay data set” (2004).
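All cell lines were grown in 96-well plates and treated with compound for 48 hours. At the GI50, growth is halved.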 Calls of active or inactive are those of the source. Cut-off read from the data, not from the text of the source: active = GI50 up to about 1.1 µM and inactive = higher.

What was measured:
Experiment in all cases: NCI tumour cell line growth inhibition, 48 h
[1] = system: LXFL 529
[2] = system: DMS-114
[3] = system: M19-MEL
[4] = system: DMS-273
[5] = system: KM-20L2
[6] = system: DLD-1
[7] = system: HOP-18
[8] = system: XF498
[9] = system: RXF 631

SMILES | GI50 [1] | GI50 [2] | GI50 [3] | GI50 [4] | GI50 [5] | GI50 [6] | GI50 [7] | GI50 [8] | GI50 [9]
NCCCOCC(=O)O | > 100 µM (inactive) | > 100 µM (inactive) | > 100 µM (inactive) | > 100 µM (inactive) | > 100 µM (inactive) | – | – | – | –
O=C(CCN1CCC(CCO)CC1)Nc1ccc2c(c1)C(=O)c1ccc(NC(=O)CCN3CCC(CCO)CC3)cc1C2=O | 5.25 µM (inactive) | 6.53 µM (inactive) | 97.5 µM (inactive) | 6.81 µM (inactive) | 27.9 µM (inactive) | 10.4 µM (inactive) | 25.5 µM (inactive) | – | –
N#CCCn1c(S)nnc1CCC(=O)Nc1ccc(Cl)cc1Cl | > 100 µM (inactive) | > 100 µM (inactive) | > 100 µM (inactive) | > 100 µM (inactive) | > 100 µM (inactive) | > 100 µM (inactive) | – | > 100 µM (inactive) | > 100 µM (inactive)
CC(=O)OC1(C(C)=O)CC2(c3ccccc3)OC1(c1ccccc1)c1ccccc12 (stereo unspecified) | 7.53 µM (inactive) | 3.21 µM (inactive) | 9.77 µM (inactive) | 5.08 µM (inactive) | 8.59 µM (inactive) | 8.34 µM (inactive) | 42.5 µM (inactive) | 5.51 µM (inactive) | 16.9 µM (inactive)
OCCCNc1ccnc2cc(Cl)ccc12 | > 100 µM (inactive) | > 100 µM (inactive) | > 100 µM (inactive) | – | > 100 µM (inactive) | > 100 µM (inactive) | > 100 µM (inactive) | > 100 µM (inactive) | –
OCC(O)COc1c(Cl)ccc(Cl)c1Cl (stereo unspecified) | > 100 µM (inactive) | > 100 µM (inactive) | > 100 µM (inactive) | > 100 µM (inactive) | > 100 µM (inactive) | > 100 µM (inactive) | > 100 µM (inactive) | > 100 µM (inactive) | –
COc1cc2c(c(OC)c1O)-c1ccc(SC)c(=O)cc1C(NC(C)=O)CC2 (stereo unspecified) | < 0.01 µM (active) | < 0.01 µM (active) | < 0.01 µM (active) | < 0.01 µM (active) | 0.0129 µM (active) | 0.0597 µM (active) | – | – | –
c1cnc2c(c1)-n1cccc1C1(CCCCC1)NN2 | – | 53.1 µM (inactive) | – | 46.5 µM (inactive) | – | – | 8.18 µM (inactive) | 74.3 µM (inactive) | –
CN1C(=O)N(C)C2(O)c3ccccc3C(=O)C12O (stereo unspecified) | > 100 µM (inactive) | > 100 µM (inactive) | > 100 µM (inactive) | > 100 µM (inactive) | > 100 µM (inactive) | > 100 µM (inactive) | > 100 µM (inactive) | – | > 100 µM (inactive)
Cc1ccc(-c2cc(-c3ccco3)c(C#N)c(O)n2)cc1 | > 100 µM (inactive) | – | > 100 µM (inactive) | > 100 µM (inactive) | > 100 µM (inactive) | > 100 µM (inactive) | 13.3 µM (inactive) | – | –
O=C1/C(=C(\Nc2ccccc2)c2ccccc2)C=NN1c1ccccc1 | > 100 µM (inactive) | 50.6 µM (inactive) | – | 61.8 µM (inactive) | > 100 µM (inactive) | > 100 µM (inactive) | < 0.01 µM (active) | > 100 µM (inactive) | > 100 µM (inactive)
CNC(=O)OCc1nc(SC2CCCCO2)n(C)c1COC(=O)NC (stereo unspecified) | > 100 µM (inactive) | > 100 µM (inactive) | > 100 µM (inactive) | > 100 µM (inactive) | > 100 µM (inactive) | > 100 µM (inactive) | > 100 µM (inactive) | > 100 µM (inactive) | > 100 µM (inactive)
CN1CCC23c4c5ccc(O)c4OC2C(=NN=C2CCC4(O)C6Cc7ccc(O)c8c7C4(CCN6C)C2O8)CCC3(O)C1C5 (stereo unspecified) | > 100 µM (inactive) | > 100 µM (inactive) | > 100 µM (inactive) | > 100 µM (inactive) | > 100 µM (inactive) | > 100 µM (inactive) | > 100 µM (inactive) | > 100 µM (inactive) | > 100 µM (inactive)
COC(=O)C(=O)C(C(=O)C=C(C)C)C(=O)C(=O)Nc1nc2ccc([N+](=O)[O-])cc2s1 (stereo unspecified) | 83.4 µM (inactive) | 31.4 µM (inactive) | > 100 µM (inactive) | 47.6 µM (inactive) | > 100 µM (inactive) | 51.8 µM (inactive) | 4.51 µM (inactive) | – | –
